Data taken from patent publication US8772287B2, “Pyrimidinyl and 1,3,5-triazinyl benzimidazole sulfonamides and their use in cancer therapy” (VetDC, Inc., priority 2009, dated 2014).
Read-outs that look alike come from different tables or passages of the source.

Tests used:
p110α/p85 = p110α/p85 (Homo sapiens, UniProt P42336); test: Inhibition of isolated enzyme p110α/p85 (lipid kinase, [γ-33P]ATP, TLC); type: biochemical; conditions: recombinant enzyme, 100 μM ATP, nine concentrations, average of two experiments
p110α/p85, sequence (P42336 whole entry): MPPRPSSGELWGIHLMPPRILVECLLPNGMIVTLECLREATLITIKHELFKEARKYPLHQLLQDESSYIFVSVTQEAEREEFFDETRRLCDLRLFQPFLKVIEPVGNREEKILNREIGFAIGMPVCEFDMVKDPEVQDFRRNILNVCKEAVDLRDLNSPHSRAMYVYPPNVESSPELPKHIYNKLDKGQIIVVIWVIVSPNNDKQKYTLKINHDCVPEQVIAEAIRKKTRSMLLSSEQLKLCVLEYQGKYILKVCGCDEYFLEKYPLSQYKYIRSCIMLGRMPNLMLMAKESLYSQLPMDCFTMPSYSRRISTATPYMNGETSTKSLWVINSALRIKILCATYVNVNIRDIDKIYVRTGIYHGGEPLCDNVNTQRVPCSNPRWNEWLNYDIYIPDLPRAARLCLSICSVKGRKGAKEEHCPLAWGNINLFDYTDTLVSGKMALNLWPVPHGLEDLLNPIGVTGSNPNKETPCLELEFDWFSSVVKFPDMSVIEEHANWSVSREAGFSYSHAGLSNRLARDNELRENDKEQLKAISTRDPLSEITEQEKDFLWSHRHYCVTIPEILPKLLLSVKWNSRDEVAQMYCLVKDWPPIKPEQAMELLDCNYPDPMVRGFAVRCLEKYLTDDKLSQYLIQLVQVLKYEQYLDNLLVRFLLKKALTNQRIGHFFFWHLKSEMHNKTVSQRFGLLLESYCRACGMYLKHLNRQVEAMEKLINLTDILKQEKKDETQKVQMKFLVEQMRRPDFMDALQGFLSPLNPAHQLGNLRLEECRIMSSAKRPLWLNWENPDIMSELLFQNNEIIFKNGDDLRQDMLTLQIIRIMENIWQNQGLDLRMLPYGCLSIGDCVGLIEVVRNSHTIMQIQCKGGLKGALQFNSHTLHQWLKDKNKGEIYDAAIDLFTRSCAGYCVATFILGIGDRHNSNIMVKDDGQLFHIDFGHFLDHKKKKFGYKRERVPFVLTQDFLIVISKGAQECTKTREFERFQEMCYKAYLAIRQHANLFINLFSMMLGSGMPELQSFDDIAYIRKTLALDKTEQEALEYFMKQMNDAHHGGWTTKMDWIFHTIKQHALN
p110α/p85, sequence (P27986 whole entry partner): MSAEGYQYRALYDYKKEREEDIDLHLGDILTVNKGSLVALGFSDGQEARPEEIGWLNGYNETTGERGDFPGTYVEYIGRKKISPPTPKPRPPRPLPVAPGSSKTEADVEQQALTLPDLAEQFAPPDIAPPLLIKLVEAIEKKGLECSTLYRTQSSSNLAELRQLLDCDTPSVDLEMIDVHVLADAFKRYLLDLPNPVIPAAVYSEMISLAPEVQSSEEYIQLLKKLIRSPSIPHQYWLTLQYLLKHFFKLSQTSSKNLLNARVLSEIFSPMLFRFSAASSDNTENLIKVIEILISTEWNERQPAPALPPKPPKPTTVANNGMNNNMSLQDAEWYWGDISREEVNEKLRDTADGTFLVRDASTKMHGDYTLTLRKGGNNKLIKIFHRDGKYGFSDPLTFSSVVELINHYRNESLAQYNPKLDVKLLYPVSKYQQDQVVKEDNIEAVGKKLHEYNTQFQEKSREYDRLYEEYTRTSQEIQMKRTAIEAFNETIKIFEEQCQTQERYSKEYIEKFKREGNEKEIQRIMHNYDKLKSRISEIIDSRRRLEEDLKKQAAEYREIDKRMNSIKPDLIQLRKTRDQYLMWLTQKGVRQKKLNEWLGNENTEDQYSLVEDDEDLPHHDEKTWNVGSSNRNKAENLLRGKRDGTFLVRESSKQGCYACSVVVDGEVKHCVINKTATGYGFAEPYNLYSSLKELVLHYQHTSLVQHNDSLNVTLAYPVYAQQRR
Description: (§1) Compounds were evaluated for their ability to inhibit Class I PI 3-kinase enzymes p110δ/p85, p110α/p85, and p110β/p85. Reaction mixtures comprising 0.1 μg of a recombinant enzyme, 10 μg of L-α-phosphatidylinositol, and 2× Lipid Kinase Buffer (40 mM Tris-HCl, pH 7.4, 200 mM NaCl, 1 mM EDTA), which contains either DMSO only as a control or the test compound in DMSO (the final DMSO concentration is 1%), were activated by the addition of an ATP mix (5 mM MgCl2, 100 μM ATP, and 0.1 μL [γ^33P]ATP). Reactions were incubated at room temperature for 1 hr, and then stopped by the addition of 1M HCl. The lipids were then extracted using a two step procedure. Firstly, 200 μL of chloroform/methanol (1:1) was added, the biphasic reactions mixed and centrifuged briefly, and the inorganic phase was removed and discarded. Following this, 80 μL of methanol:HCl (1:1) was added and the same procedure followed. The organic phase (70 μL) was then transferred to a clean 1.6 mL tube and the reactions were dried using a Speedvac, with no heating, for 30 min. The reactions were spotted onto TLC plates (Merck Ltd) and developed for 1 hr in propanol-1:2 M acetic acid (13:7). The TLC plates were then dried at room temperature and quantified using a phosphorimager (StormImager, Amersham). Nine compound concentrations were used for each test compound to determine its IC50 value. Each experiment was performed twice and the average IC50 value is used herein.

p110β/p85 = p110β/p85 (Homo sapiens, UniProt P42338); test: Inhibition of isolated enzyme p110β/p85 (lipid kinase, [γ-33P]ATP, TLC); type: biochemical; conditions: recombinant enzyme, 100 μM ATP, nine concentrations, average of two experiments
p110β/p85, sequence (P42338 whole entry, species assumed): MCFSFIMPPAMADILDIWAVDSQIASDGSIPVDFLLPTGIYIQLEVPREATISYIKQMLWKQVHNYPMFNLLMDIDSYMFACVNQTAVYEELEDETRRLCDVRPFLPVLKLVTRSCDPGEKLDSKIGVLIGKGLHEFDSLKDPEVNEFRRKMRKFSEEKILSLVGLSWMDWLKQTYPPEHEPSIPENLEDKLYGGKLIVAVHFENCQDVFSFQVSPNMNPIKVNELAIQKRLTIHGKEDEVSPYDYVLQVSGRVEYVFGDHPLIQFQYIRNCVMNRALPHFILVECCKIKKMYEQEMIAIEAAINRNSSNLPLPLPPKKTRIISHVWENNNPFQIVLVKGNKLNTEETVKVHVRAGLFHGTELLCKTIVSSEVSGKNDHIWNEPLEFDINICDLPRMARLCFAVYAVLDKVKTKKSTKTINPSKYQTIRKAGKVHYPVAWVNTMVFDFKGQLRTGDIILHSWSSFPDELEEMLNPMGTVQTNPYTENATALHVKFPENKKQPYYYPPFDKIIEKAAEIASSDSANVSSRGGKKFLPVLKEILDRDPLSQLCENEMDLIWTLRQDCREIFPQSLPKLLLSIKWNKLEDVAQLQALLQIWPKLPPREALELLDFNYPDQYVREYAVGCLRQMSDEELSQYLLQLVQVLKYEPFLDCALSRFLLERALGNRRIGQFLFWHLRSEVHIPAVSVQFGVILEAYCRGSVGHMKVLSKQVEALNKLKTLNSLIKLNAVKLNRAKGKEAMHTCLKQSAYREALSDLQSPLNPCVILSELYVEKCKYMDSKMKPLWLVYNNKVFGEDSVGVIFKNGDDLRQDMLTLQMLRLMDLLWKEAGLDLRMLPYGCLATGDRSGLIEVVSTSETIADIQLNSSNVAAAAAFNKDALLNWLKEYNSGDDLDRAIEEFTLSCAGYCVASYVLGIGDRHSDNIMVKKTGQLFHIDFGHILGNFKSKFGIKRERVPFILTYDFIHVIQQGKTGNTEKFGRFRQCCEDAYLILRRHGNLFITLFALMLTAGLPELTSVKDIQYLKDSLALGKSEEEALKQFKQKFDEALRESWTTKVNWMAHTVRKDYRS
p110β/p85, sequence (P27986 whole entry partner, species assumed): as the sequence (P27986 whole entry partner) above
Description: as §1

NZB5 = test: Cellular growth inhibition, NZB5 (3H-thymidine incorporation); type: cell-based, human; conditions: five days incubation, 3H-thymidine over the last 6 hrs, read-out: Cell IC50 NZB5
Description: (§2) The compounds were evaluated against two early passage human cell lines NZB5 and NZOV9 (Marshall et al., Oncol. Res. 2004, 14, 297). The cells were grown in ITS medium (α-modified minimal essential medium supplemented insulin, transferrin, selenite, and 5% fetal bovine serum) and grown on 96-well tissue culture plates under an atmosphere of 5% O2, 5% CO2, and 90% N2. Individual wells contained 500-1,000 cells (depending on the growth rate) in a volume of 150 μL. Compounds were added at 10-fold concentration steps to a maximum of 20 μM and plates were incubated for five days, with ^3H-thymidine being added over the last 6 hrs. Cells were harvested and incorporated radioactivity measured. Duplicate samples were analyzed for each compound dose with multiple control samples.

NZOV9 = test: Cellular growth inhibition, NZOV9 (3H-thymidine incorporation); type: cell-based, human; conditions: five days incubation, 3H-thymidine over the last 6 hrs, read-out: Cell IC50 NZOV9
Description: as §2

p110δ/p85 = p110δ/p85 (Homo sapiens, UniProt O00329); test: Inhibition of isolated enzyme p110δ/p85 (lipid kinase, [γ-33P]ATP, TLC); type: biochemical; conditions: recombinant enzyme, 100 μM ATP, nine concentrations, average of two experiments
p110δ/p85, sequence (O00329 whole entry, species assumed): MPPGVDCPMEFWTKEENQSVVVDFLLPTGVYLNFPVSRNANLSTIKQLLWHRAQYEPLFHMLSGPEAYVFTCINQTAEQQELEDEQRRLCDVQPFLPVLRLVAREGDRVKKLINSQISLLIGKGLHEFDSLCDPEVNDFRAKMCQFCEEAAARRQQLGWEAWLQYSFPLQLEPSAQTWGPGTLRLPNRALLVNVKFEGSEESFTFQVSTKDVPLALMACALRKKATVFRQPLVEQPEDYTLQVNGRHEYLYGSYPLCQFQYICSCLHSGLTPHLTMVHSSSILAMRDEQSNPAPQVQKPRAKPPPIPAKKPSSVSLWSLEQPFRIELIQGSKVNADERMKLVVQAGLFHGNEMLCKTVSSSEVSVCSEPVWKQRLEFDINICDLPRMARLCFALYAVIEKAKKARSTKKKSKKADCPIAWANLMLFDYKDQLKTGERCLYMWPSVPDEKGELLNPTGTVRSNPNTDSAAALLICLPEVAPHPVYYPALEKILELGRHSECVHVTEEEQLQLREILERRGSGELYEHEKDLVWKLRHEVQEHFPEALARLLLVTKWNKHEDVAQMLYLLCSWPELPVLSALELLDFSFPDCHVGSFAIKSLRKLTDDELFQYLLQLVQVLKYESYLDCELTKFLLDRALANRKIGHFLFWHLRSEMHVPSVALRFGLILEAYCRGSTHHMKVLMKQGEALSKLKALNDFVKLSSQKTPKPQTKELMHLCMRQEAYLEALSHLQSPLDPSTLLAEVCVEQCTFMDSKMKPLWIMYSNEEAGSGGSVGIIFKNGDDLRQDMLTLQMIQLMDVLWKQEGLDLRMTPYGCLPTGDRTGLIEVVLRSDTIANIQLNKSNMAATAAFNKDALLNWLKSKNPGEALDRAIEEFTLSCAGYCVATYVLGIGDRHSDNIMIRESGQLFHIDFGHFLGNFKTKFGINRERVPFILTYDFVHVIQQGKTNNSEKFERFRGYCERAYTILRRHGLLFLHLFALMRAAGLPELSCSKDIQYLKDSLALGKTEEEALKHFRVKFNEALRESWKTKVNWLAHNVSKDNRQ
p110δ/p85, sequence (P27986 whole entry partner, species assumed): as the sequence (P27986 whole entry partner) above
Description: as §1

PI3K = conditions: reversible inhibitors, literature; cited from earlier work
human tumor xenografts = conditions: mouse, in vivo; cited from earlier work

IC50 (p110α/p85) [nM]	IC50 (p110β/p85) [nM]	melting point [°C]	IC50 (p110δ/p85) [nM]	Molecule	also measured
< 100	< 100	242 to 244	< 100	C=CS(=O)(=O)N1CCN(c2nc(N3CCOCC3)nc(-n3c(C(F)F)nc4c(OC)cccc43)n2)CC1 [Example 3, 2-(difluoromethyl)-4-methoxy-1-{4-(4-morpholinyl)-6-[4-(vinylsulfonyl)-1-piperazinyl]-1,3,5-triazin-2-yl}-1H-benzimidazole]	IC50 (NZB5; Homo sapiens, NZB5): 100 to 1000 nM; IC50 (NZOV9; Homo sapiens, NZOV9): < 100 nM
< 100		282 to 285	100 to 1000	COc1cccc2c1nc(C(F)F)n2-c1nc(N2CCOCC2)nc(N2CCC(NS(=O)(=O)C(F)(F)F)CC2)n1 [Example 87, N-{1-[4-[2-(difluoromethyl)-4-methoxy-1H-benzimidazol-1-yl]-6-(4-morpholinyl)-1,3,5-triazin-2-yl]-4-piperidinyl}trifluoromethanesulfonamide]	
				FC(F)c1nc2ccccc2n1-c1nc(N2CCOCC2)nc(N2CCOCC2)n1 [ZSTK474]	PI3K isoform selectivity (PI3K): non-selective
< 100	100 to 1000	250 to 253	< 100	COc1cccc2c1nc(C(F)F)n2-c1nc(Nc2ccc(N(C)S(C)(=O)=O)nc2)nc(N2CCOCC2)n1 [Example 101, N-(5-{[4-[2-(difluoromethyl)-4-methoxy-1H-benzimidazol-1-yl]-6-(4-morpholinyl)-1,3,5-triazin-2-yl]amino}-2-pyridinyl)-N-methylmethanesulfonamide]	IC50 (NZB5; Homo sapiens, NZB5): < 100 nM; IC50 (NZOV9; Homo sapiens, NZOV9): < 100 nM
< 100		302 to 306	< 100	COc1cccc2c1nc(C(F)F)n2-c1nc(Nc2ccc(NS(C)(=O)=O)nc2)nc(N2CCOCC2)n1 [Example 100, N-(5-{[4-[2-(difluoromethyl)-4-methoxy-1H-benzimidazol-1-yl]-6-(4-morpholinyl)-1,3,5-triazin-2-yl]amino}-2-pyridinyl)methanesulfonamide]	IC50 (NZB5; Homo sapiens, NZB5): 100 to 1000 nM; IC50 (NZOV9; Homo sapiens, NZOV9): < 100 nM
100 to 1000	> 1000		100 to 1000	N-{(3S)-1-[4-[2-(difluoromethyl)-4-methoxy-1H-benzimidazol-1-yl]-6-(4-morpholinyl)-1,3,5-triazin-2-yl]piperidinyl}-N-[3-(dimethylamino)propyl]methane-sulfonamide [Example 63]	IC50 (NZB5): 100 to 1000 nM; IC50 (NZOV9): 100 to 1000 nM
	> 1000			COc1cccc2c1nc(C(F)F)n2-c1nc(N2CCOCC2)nc(N(CCCN(C)C)C2CCN(S(=O)(=O)CCl)CC2)n1 [Example 59, N^1-{1-[(chloromethyl)sulfonyl]-4-piperidinyl}-N^1-[4-[2-(difluoromethyl)-4-methoxy-1H-benzimidazol-1-yl]-6-(4-morpholinyl)-1,3,5-triazin-2-yl]-N^3,N^3-dimethyl-1,3-propanediamine]	
			> 1000	COc1cccc2c1nc(C(F)F)n2-c1nc(-c2ccc(S(=O)(=O)N3CCN(C)CC3)cc2)nc(N2CCOCC2)n1 [Example 95, 2-(difluoromethyl)-4-methoxy-1-[4-{4-[(4-methyl-1-piperazinyl)sulfonyl]phenyl}-6-(4-morpholinyl)-1,3,5-triazin-2-yl]-1H-benzimidazole]	
				Cc1cc(C(C)Nc2ccccc2)c2nc(N3CCOCC3)cc(=O)n2c1 (stereo not shown) [TGX221]	PI3K isoform selectivity (PI3K): β-selective
				O=c1cc(N2CCOCC2)oc2c(-c3ccccc3)cccc12 [LY294002]	tolerability (human tumor xenografts): well-tolerated
100 to 1000		272 to 273	> 1000	COc1cccc2c1nc(C(F)F)n2-c1nc(N2CCOCC2)nc(N2CCN(S(=O)(=O)C(F)(F)F)CC2)n1 [Example 86, 2-(difluoromethyl)-4-methoxy-1-(4-(4-morpholinyl)-6-{4-[(trifluoromethyl)-sulfonyl]-1-piperazinyl}-1,3,5-triazin-2-yl)-1H-benzimidazole]	
< 100	< 100	191 to 193	< 100	COc1cccc2c1nc(C(F)F)n2-c1nc(N2CCOCC2)cc(N(C)C2CCN(S(C)(=O)=O)CC2)n1 [Example 6, 2-[2-(difluoromethyl)-4-methoxy-1H-benzimidazol-1-yl]-N-methyl-N-[1-(methylsulfonyl)-4-piperidinyl]-6-(4-morpholinyl)-4-pyrimidinamine]	IC50 (NZB5; Homo sapiens, NZB5): 100 to 1000 nM; IC50 (NZOV9; Homo sapiens, NZOV9): < 100 nM
				Oc1cccc(-c2nc(N3CCOCC3)c3oc4ncccc4c3n2)c1 [PI103]	PI3K isoform selectivity (PI3K): slightly α-selective
				Cc1ccccc1-n1c(Cn2cnc3c(N)ncnc32)nc2cccc(C)c2c1=O [IC87114]	PI3K isoform selectivity (PI3K): δ-selective
< 100		230 to 232	< 100	COc1cccc2c1nc(C(F)F)n2-c1nc(N2CCOCC2)nc(N2CCC(NS(=O)(=O)CCl)CC2)n1 [Example 61, chloro-N-{1-[4-[2-(difluoromethyl)-4-methoxy-1H-benzimidazol-1-yl]-6-(4-morpholinyl)-1,3,5-triazin-2-yl]-4-piperidinyl}methanesulfonamide]	
< 100			100 to 1000	COc1cccc2c1nc(C(F)F)n2-c1nc(N2CCOCC2)nc(N2CC(NS(=O)(=O)C(F)(F)F)C2)n1 [Example 88, N-{1-[4-[2-(difluoromethyl)-4-methoxy-1H-benzimidazol-1-yl]-6-(4-morpholinyl)-1,3,5-triazin-2-yl]-3-azetidinyl}(trifluoro)methanesulfonamide]	
	> 1000			CN(C)CCCOc1cccc2c1nc(C(F)F)n2-c1nc(OC2CCN(S(C)(=O)=O)CC2)nc(N2CCOCC2)n1 [Example 7, N-[3-({2-(difluoromethyl)-1-[4-{[1-(methylsulfonyl)-4-piperidinyl]oxy}-6-(4-morpholinyl)-1,3,5-triazin-2-yl]-1H-benzimidazol-4-yl}oxy)propyl]-N,N-dimethylamine]	IC50 (NZB5; Homo sapiens, NZB5): 100 to 1000 nM; IC50 (NZOV9; Homo sapiens, NZOV9): 100 to 1000 nM
